“Also recorded” adds a separate entry of the source. Where two headings read alike, the source gives them in different places.
Key:
MMP-12 [1] = experiment: qRT-PCR of MMP-12 mRNA in pancreatic cancer cell lines; type: cell-based, human; settings: highest concentration, in vitro
Procedure: (§1) Quantitative Reverse transcription-PCR (qRT-PCR): qRT-PCR was performed as described previously using QuantiTect SYBR Green PCR Kits (QIAGEN, Valencia, CA) (28). Gene specific primers for human MMP-9, MMP-12, MMP-14 and I3-actin were either purchased from QIAGEN or synthesized at the CBER core facility. Gene expression was normalized to β-actin before the fold change in gene expression was determined.
(§2) Since MMP-9 plays a central role in pancreatic cancer invasion, MMP-9 mRNA and protein levels were examined in both cell lines.

MMP-9 [2] = experiment: Gelatin gel zymography of cell lysates; type: cell-based, human; settings: cell lines in vitro, dose dependent
Procedure: (§3) Briefly, 50 μg of total protein was electrophoresed on 10% SDS-PAGE containing 0.1% gelatin as substrate. After washing with 1% Triton X-100 in 50 mM Tris/HCl, pH 7.5 for 1 hr to remove SDS, the gels were incubated overnight at 37° C. in 50 mM Tris/HCl, pH 7.5, containing 150 mM NaCl, 10 mM CaCl2 and 0.1% Triton X-100, prior to staining with simply blue safe stain. The gels were washed with deionized water at room temperature. […] Relevant band intensities were quantified by scanning densitometric analysis and normalized to cell number.
as §2

MMP-9 [3] = experiment: ELISA of MMP-9 protein in pancreatic cancer cell lines; type: cell-based, human; settings: highest concentration (5 mM), both cell lines
Procedure: Enzyme-Linked ImmunoSorbent Assay (ELISA): The NIMP-9 protein level was determined using Human total MMP-9 DuoSet kit (R&D systems, Emeryville, CA) following the manufacturer's instruction. Ten microgram of total protein was aliquoted in each well and the MMP-9 concentration was determined by the colorimetric method. […] Since MMP-9 plays a central role in pancreatic cancer invasion, MMP-9 mRNA and protein levels were examined in both cell lines.

MMP-14 [4] = experiment: qRT-PCR of MMP-14 mRNA in pancreatic cancer cell lines; type: cell-based, human; settings: highest concentration, in vitro
Procedure: as §1, §2

[5] = General condition, body weight, serum enzymes and histology of treated tumor-bearing mice; type: in vivo
Procedure: (§4) Measurement of metastasis, survival and body weight of animals implanted with orthotopic pancreatic cancer in mouse model: Female nude nu/nu mice between ages 5 and 6 weeks were maintained in a barrier facility in HEPA-filtered rack. All animal studies were conducted under approved protocol #2000-06 by the CBER Institutional Animal Care and Use Committee in accordance with the principles and procedures outlined in the NIH Guideline for the Care and Use of Laboratory Animals. For orthotopic tumor cell injection, the pancreas was carefully exposed, and 2.0×10^6 of MIA-PaCa2 and H5766T cells were injected into the organ. The pancreas was then returned to the peritoneal cavity, and the abdominal wall and skin were closed with skin clips (29, 30). […] At day 30, mice were sacrificed and the number of metastatic nodules visible by naked eye and whose sizes were >5 mm in diameter counted. The total weight of primary tumor and metastatic nodules were also measured. Pictures were taken immediately after sacrificing the animals. Additionally, mouse survival time was monitored in an independent experiment. Mice were sacrificed when they had severe ascites or cachexia.
Measurement of enzymes in mouse serum: Mouse blood was collected from the tail vein. Serum levels of alanine aminotransferase (ALT), creatine kinase (CK), aldolase and creatinine (Cr) were measured using different kits obtained from Pointe Scientific, Inc. (Canton, MI) and Caldon Biotech, Inc. (Vista, Ca), following the manufacturer's instruction.
The general condition and body weight of mice throughout the experimental period was also monitored. […] Similarly, there was no alteration in serum enzymes representing liver function (ALT) or muscle damage (Aldolase) nor evidence of skeletal muscle damage or kidney function (creatinine kinase and creatinine) in the cysteamine-treated groups.

MMP-9 [6] = experiment: Zymography for MMP-9 in primary orthotopic tumors; type: in vivo, mice; settings: tumors harvested day 30
Procedure: as §3

intracellular cystine = settings: cited from earlier work
[7] = cited from earlier work
[8] = tested on: pancreatic cancer cell lines; experiment: Cell migration assay (wound healing); type: cell-based, human
Procedure: Cell Migration Assay: Cell migration assay is a classical wound healing assay (25). For this assay, cells were cultured in 10 cm petri dishes until they were completely confluent. […] Five random fields were selected and pictures were taken using an inverted microscope. The average area (mm 2) of the gap between the cell layers was calculated using IPLab imaging software (BD Biosciences-Bioimaging, Rockville, MD). […] For the migration assay, a wound healing assay was used (described above in Example 1).

MIA-PaCa2 tumor = experiment: Orthotopic pancreatic cancer mouse model: metastasis, ascites, survival; type: in vivo, mice
Procedure: as §4
(§5) At day 30, the number and weight of the primary tumor and metastatic nodules were measured. […] The survival of mice among different treatment groups was also determined.

H5766T tumor = experiment: as above; type: in vivo, mice
Procedure: as §4, §5

[9] = in vivo; cited from earlier work
MMP-9 [10] = experiment: qRT-PCR of MMP-9 mRNA in pancreatic cancer cell lines; type: cell-based, human; settings: highest concentration (5 mM), both cell lines
Procedure: as §1, §2

MMPs [11] = experiment: MMP activity in pancreatic cancer cell lines (fluorogenic peptide substrate); type: cell-based, human; settings: two representative cell lines, concentration-dependent
Procedure: (§6) Measurement of MMP activity: MMPs activity was measured by Mca-KPLGL-Dpa-AR-NH2 Fluorogenic Peptide Substrate (R&D systems, Emeryville, CA). Total cell protein from each pancreatic cancer cell line was collected using lysis buffer (containing 50 mM Tris-HCl, 10 mM CaCl2, 0.05% Brij35 and 0.25% Triton-X) without an MMP inhibitor. Substrate and 10 μg of total cell protein in the buffer were mixed in a black-wall 96-well plate. After 1 hour incubation, fluorescence units were determined using excitation/emission=320/405 nm.

MMPs [12] = tested on: T1, MMPs; experiment: MMP profiling, summary over the whole MMP panel; type: biochemical
T1 construct: rows headed: anti-MMP activity, IC50 range
Procedure: (§7) After administration of fluorogenic substrate, a velocity of fluorescent increase was measured using excitation/emission=320/405 nm.
as §2

MMPs [13] = tested on: T2, MMPs; experiment: MMP profiling, summary over the whole MMP panel; type: biochemical; settings: MMP-1 to MMP-14 of Table 1; read-out: IC50 against each MMP enzymatic activity (span over the panel)
T2 construct: rows headed: IC50 against each MMP enzymatic activity (span over the panel)
Procedure: as §7, §2

MMP-9 [14] = experiment: ELISA of MMP-9 protein in primary orthotopic tumors; type: in vivo, mice; settings: tumors harvested day 30
Procedure: Enzyme-Linked ImmunoSorbent Assay (ELISA): The NIMP-9 protein level was determined using Human total MMP-9 DuoSet kit (R&D systems, Emeryville, CA) following the manufacturer's instruction. Ten microgram of total protein was aliquoted in each well and the MMP-9 concentration was determined by the colorimetric method.

[15] = tested on: pancreatic cancer cell lines; experiment: Matrigel invasion assay; type: cell-based, human
Procedure: Matrigel invasion assay: Cell invasion was assayed in BD BioCoat Matrigel invasion chambers (BD Biosciences; 24 wells, 8 μm pore size) as described previously (26). […] Non-invaded cells were removed from the upper surface of the membrane with a cotton swab, and cells on the lower surface of the membrane were fixed and stained with H&E. Three random fields per chamber were counted. Data were shown as mean±S.D. of triplicate determinations. […] For this assay, ten different pancreatic cancer cell lines in a matrigel invasion chamber were used.

MMP-9 [16] = experiment: qRT-PCR of MMP-9 mRNA in primary orthotopic tumors; type: in vivo, mice; settings: tumors harvested day 30
Procedure: as §1

MMPs [17] = experiment: MMP activity in primary orthotopic tumors; type: in vivo, mice; settings: H5766T and MIA-PaCa2 tumors, 100 and 250 mg/Kg, day 30
Procedure: as §6

MMP-1 = target: T3, MMP-1 (Homo sapiens, UniProt P03956); experiment: MMP profiling, IC50 (fluorimetric MMP inhibitor profiling kit); type: biochemical
T3 construct: purchased Enzo Life Science, Farmingdale, NY
T3 sequence (P03956 100-469): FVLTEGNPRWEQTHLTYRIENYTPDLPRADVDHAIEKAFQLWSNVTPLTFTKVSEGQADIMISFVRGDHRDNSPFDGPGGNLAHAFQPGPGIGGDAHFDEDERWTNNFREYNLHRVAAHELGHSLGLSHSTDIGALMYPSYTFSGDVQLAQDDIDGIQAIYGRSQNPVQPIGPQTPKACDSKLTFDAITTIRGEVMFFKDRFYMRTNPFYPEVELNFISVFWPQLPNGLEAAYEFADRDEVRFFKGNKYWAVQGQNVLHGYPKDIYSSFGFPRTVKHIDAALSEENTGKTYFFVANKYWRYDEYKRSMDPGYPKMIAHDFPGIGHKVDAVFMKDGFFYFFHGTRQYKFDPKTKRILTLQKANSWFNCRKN
Procedure: as §7

MMP-13 = target: T4, MMP-13 (Homo sapiens, UniProt P45452); experiment: as above; type: biochemical
T4 construct: purchased Enzo Life Science, Farmingdale, NY
Procedure: as §7

MMP-9 [18] = target: T5, MMP-9 (Homo sapiens, UniProt P14780); experiment: as above; type: biochemical
T5 construct: purchased Enzo Life Science, Farmingdale, NY
T5 sequence (P14780 94-707): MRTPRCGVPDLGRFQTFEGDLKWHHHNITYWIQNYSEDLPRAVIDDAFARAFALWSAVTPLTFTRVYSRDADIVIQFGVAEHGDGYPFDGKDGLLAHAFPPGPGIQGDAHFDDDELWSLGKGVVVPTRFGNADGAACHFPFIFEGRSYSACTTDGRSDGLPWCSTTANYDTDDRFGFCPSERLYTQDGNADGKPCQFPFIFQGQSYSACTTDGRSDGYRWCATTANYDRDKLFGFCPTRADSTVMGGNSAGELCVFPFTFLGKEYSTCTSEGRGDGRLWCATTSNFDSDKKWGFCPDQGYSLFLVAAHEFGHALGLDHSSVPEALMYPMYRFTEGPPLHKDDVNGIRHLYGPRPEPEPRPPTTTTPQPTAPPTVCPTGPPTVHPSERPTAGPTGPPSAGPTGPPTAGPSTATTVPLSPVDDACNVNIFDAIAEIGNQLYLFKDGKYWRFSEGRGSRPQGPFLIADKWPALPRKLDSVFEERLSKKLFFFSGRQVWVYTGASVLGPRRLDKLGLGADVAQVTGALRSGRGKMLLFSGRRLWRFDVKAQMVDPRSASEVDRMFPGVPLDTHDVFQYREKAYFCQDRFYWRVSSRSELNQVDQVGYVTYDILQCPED
Procedure: as §7

MMP-12 [19] = target: T6, MMP-12 (Homo sapiens, UniProt P39900); experiment: as above; type: biochemical
T6 construct: purchased Enzo Life Science, Farmingdale, NY
T6 sequence (P39900 106-470): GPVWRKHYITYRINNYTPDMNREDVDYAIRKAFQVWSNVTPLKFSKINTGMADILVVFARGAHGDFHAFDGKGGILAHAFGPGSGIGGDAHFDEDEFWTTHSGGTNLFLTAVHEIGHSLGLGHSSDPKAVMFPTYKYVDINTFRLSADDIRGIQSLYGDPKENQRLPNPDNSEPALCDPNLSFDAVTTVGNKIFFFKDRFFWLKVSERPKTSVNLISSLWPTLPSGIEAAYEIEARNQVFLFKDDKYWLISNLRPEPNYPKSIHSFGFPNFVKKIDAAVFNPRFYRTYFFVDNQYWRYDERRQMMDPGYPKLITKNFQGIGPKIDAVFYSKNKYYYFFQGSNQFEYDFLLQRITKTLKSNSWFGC
Procedure: as §7

MMP-2 = target: T7, MMP-2 (Homo sapiens, UniProt P08253); experiment: as above; type: biochemical
T7 construct: purchased Enzo Life Science, Farmingdale, NY
T7 sequence (P08253 110-660): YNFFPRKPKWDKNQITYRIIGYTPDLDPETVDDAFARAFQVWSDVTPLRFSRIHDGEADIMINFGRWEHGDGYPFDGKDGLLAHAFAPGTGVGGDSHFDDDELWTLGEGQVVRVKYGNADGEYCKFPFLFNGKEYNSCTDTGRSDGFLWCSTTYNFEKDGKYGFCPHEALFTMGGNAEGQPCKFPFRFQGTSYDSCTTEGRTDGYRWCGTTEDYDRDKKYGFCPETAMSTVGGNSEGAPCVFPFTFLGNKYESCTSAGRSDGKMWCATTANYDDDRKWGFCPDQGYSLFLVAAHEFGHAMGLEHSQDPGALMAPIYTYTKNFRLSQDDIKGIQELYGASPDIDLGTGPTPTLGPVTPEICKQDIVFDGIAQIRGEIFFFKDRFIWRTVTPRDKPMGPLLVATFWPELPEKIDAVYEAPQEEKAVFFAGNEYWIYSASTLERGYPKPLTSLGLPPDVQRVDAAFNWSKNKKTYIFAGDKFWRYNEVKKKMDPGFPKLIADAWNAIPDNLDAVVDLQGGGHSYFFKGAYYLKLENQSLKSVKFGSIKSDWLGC
Procedure: as §7

MMP-3 = target: T8, MMP-3 (Homo sapiens, UniProt P08254); experiment: as above; type: biochemical
T8 construct: purchased Enzo Life Science, Farmingdale, NY
T8 sequence (P08254 100-477): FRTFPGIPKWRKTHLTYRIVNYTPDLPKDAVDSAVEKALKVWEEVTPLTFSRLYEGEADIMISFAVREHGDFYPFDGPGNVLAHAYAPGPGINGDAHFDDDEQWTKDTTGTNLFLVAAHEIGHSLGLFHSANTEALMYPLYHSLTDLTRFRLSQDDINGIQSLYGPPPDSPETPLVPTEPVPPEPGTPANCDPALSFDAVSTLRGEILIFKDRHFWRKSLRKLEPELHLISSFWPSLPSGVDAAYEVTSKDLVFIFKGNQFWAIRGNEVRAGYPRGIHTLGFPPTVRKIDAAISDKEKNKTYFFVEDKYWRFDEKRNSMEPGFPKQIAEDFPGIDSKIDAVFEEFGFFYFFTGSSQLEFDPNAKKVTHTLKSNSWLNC
Procedure: as §7

MMP-8 = target: T9, MMP-8 (Homo sapiens, UniProt P22894); experiment: as above; type: biochemical
T9 construct: purchased Enzo Life Science, Farmingdale, NY
T9 sequence (P22894 101-467): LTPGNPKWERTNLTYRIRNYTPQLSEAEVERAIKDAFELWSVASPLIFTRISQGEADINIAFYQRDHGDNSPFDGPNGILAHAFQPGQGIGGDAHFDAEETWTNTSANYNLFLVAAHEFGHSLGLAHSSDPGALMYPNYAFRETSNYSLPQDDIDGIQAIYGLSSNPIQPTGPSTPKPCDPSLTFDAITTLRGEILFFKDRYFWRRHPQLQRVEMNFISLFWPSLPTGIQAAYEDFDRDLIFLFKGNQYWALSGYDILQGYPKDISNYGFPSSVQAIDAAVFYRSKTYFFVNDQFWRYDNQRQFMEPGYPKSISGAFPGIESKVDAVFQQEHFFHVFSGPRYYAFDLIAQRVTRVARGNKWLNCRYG
Procedure: as §7

MMP-14 [20] = target: T10, MMP-14 (Homo sapiens, UniProt P50281); experiment: as above; type: biochemical
T10 construct: purchased Enzo Life Science, Farmingdale, NY
Procedure: as §7

MMP-10 = target: T11, MMP-10 (Homo sapiens, UniProt P09238); experiment: as above; type: biochemical
T11 construct: purchased Enzo Life Science, Farmingdale, NY
T11 sequence (P09238 99-476): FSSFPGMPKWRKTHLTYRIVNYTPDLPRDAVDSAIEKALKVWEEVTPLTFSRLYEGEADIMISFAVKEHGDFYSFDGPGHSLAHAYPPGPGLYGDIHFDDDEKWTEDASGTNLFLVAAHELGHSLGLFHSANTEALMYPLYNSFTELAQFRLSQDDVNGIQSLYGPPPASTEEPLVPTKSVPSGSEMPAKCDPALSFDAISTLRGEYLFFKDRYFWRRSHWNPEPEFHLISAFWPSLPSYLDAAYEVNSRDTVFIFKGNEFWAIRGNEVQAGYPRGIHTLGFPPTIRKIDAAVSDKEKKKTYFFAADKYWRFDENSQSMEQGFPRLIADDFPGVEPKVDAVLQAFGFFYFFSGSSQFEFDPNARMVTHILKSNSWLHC
Procedure: as §7

MMP-7 = target: T12, MMP-7 (Homo sapiens, UniProt P09237); experiment: as above; type: biochemical
T12 construct: purchased Enzo Life Science, Farmingdale, NY
T12 sequence (P09237 95-267): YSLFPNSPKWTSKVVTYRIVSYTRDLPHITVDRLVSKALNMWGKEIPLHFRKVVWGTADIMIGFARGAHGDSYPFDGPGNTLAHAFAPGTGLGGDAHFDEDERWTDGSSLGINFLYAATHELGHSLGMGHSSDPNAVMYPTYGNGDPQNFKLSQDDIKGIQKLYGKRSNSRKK
Procedure: as §7

[21] = cited from earlier work; remark: listed apart in the source
MMPs [22] = settings: not tested in Table 1; cited from earlier work
[23] = delivery to the small intestine (WO 2007/089670)

NCCS [Cysteamine]
mRNA of MMP-12 (MMP-12 [1]): modest increase; also recorded: modestly upregulated
zymographic gelatin hydrolyzing activity, pro and active MMP-9 (MMP-9 [2]): decreased significantly; also recorded: dose dependent decrease
protein level of MMP-9 (MMP-9 [3]): modestly increased; also recorded: modestly to moderately upregulated
mRNA of MMP-14 (MMP-14 [4]): modest increase; also recorded: modestly upregulated
dose tolerated without visible, biochemical or histological evidence of toxicity ([5]; mice): up to 250 mg/kg/day
organ toxicity by histological examination ([5]; mouse, in vivo): no organ toxicity
serum ALT (liver function) ([5]; mouse, in vivo): no alteration
serum Aldolase (muscle damage) ([5]; mouse, in vivo): no alteration
serum creatinine (kidney function) ([5]; mouse, in vivo): no alteration
serum creatinine kinase ([5]; mouse, in vivo): no alteration
adverse effects (general appearance, body weight, muscle damage, serum enzymes, serum creatinine) ([5]; mouse, in vivo, 250 mg/kg/day): no adverse effects
gelatinase activity, zymography for MMP-9, primary tumors (MMP-9 [6]): dose dependent decrease
time to decrease in leukocyte cystine (intracellular cystine; [23]): within an hour
depletion of intracellular cystine (intracellular cystine; taken regularly, circulating white blood cells): up to 90%
AUC [7, 23]: increases AUC
cysteamine plasma level ([7]; oral, every 6 hours, 60 to 90 mg/kg of body weight per day): ≤ 50 µM
concentration at which cell migration was significantly inhibited ([8]; all ten cell lines, 24 hours): ≥ 0.05 mM
concentration that sufficiently inhibited cancer cell migration in vitro ([8]; discussion): 50 µM
mouse survival time (MIA-PaCa2 tumor; MIA-PaCa2, 100 mg/kg/day, FIG. 1B): significantly prolonged
ascites in peritoneal cavity (MIA-PaCa2 tumor; MIA-PaCa2, 100 and 250 mg/kg/day): no mice developed ascites
number of metastatic nodules (MIA-PaCa2 tumor; MIA-PaCa2, dose-dependent, day 30): significantly decreased
decrease in total weight of metastatic nodules (MIA-PaCa2 tumor; MIA-PaCa2, highest dose (250 mg/kg/day), day 30): ~90%
size and weight of the primary tumor vs control (MIA-PaCa2 tumor; MIA-PaCa2, s.c. twice daily from day 4, day 30): did not show any difference
mouse survival time (H5766T tumor; 100 mg/kg/day, FIG. 1A): significantly prolonged
decrease in number of metastases (H5766T tumor; 250 mg/kg/day s.c., day 30): ~90%
number of metastases (H5766T tumor; 250 mg/kg/day s.c., day 30 (control 34)): 3.6
ascites in peritoneal cavity (H5766T tumor; 100 and 250 mg/kg/day): no mice developed ascites
number of metastatic nodules (H5766T tumor; dose-dependent, day 30): significantly decreased
size and weight of the primary tumor vs control (H5766T tumor; s.c. twice daily from day 4, day 30): did not show any difference
adverse effects in subjects [9]: only gastrointestinal symptoms
mRNA level of MMP-9 (MMP-9 [10]): modestly increased; also recorded: modestly to moderately upregulated
MMP activity in pancreatic cancer cell lines (MMPs [11]): inhibited
anti-MMP activity, IC50 range (MMPs [12]): high μM range
IC50 (MMPs [13]): 38 to 460 µM
protein level of MMP-9 in primary tumors (MMP-9 [14]): did not affect
lowest concentration that significantly inhibited cell invasion ([15]; all ten pancreatic cancer cell lines, 24 hours): 0.05 mM
concentration that sufficiently inhibited cancer cell invasion in vitro ([15]; discussion): 50 µM
mRNA level of MMP-9 in primary tumors (MMP-9 [16]): did not affect
MMPs activity in primary orthotopic tumors (MMPs [17]): decreased
IC50 (MMP-1): 290 µM
IC50 (MMP-13): 460 µM
IC50 (MMP-9 [18]): 200 µM
IC50 (MMP-12 [19]): 60 µM
IC50 (MMP-2): 38 µM
IC50 (MMP-3): 330 µM
IC50 (MMP-8): 240 µM
IC50 (MMP-14 [20]): 91 µM
IC50 (MMP-10): 310 µM
IC50 (MMP-7): 40 µM

CNC(=O)[C@@H](NC(=O)[C@H](CC(C)C)[C@H](O)C(=O)NO)C(C)(C)C [marimastat]
clinical toxicity ([21]; higher dosage, patients with breast cancer metastasis): high musculoskeletal toxicities
anti-MMP activity, IC50 range (MMPs [22]): nM to low μM

CNC(=O)[C@H](Cc1ccccc1)NC(=O)[C@H](CC(C)C)[C@H](CSc1cccs1)C(=O)NO [Batimastat]
oral bioavailability ([21]; in vivo, po): poor oral bioavailability

Source: patent US12667547B2 (MESHABERASE, LLC, priority 2013, dated 2026)
